Assay results as given in US4231923A, “Assay method and compounds” (Burroughs Wellcome Co., priority 1977, dated 1980).

Biological target: Opiate receptor
Experiment: Opiate receptor binding (IC50) by the method of Pasternak et al. using tritiated naloxone, absence of sodium ions
Conditions: method indicated in Example 1 (tritiated naloxone, absence of sodium ions, 4° C., pH 7.4); Table 2
Description: *Method of Pasternak, G. W. et al., Molecular Pharmacology, 11, 340-351
(1975) using tritiated naloxone and in the absence of sodium ions; assays
trishydrochloric acid buffer (50 mM, pH 7.4).
(§1) The opiate receptor IC50 (M) was ascertained by the method indicated in Example 1.
as §1

H.Try.Gly.Gly.Phe.D-Met.OMe HCl [(Y)]
IC50: 60 nM
